Results from article PMC5218480 (PLoS ONE, 2017).

Tested on: MV-4-11 cells
Assay: Gene expression microarray analysis (Affymetrix PrimeView) and GSEA
Assay type: cell-based, human
Set-up: RFU PODN (11730768_x_at) / Fold change /veh PODN (11730768_x_at) / RFU LINC00158 (11744669_a_at) / Fold change /veh LINC00158 (11744669_a_at) / RFU DUSP10 (11751237_a_at) / Fold change /veh DUSP10 (11751237_a_at) / RFU ID3 (11757404_x_at) / Fold change /veh ID3 (11757404_x_at) / RFU PLEKHG5 (11737974_s_at) / Fold change /veh PLEKHG5 (11737974_s_at) / RFU LRRC4B (11730491_at) / Fold change /veh LRRC4B (11730491_at) / RFU GIMAP4 (11747438_a_at) / Fold change /veh GIMAP4 (11747438_a_at) / RFU KRT8 (11758183_x_at) / Fold change /veh KRT8 (11758183_x_at) / RFU CNN1 (11734310_a_at) / Fold change /veh CNN1 (11734310_a_at) / RFU VPS37D (11726825_at) / Fold change /veh VPS37D (11726825_at) / RFU C10orf10 (11716522_x_at) / Fold change /veh C10orf10 (11716522_x_at) / RFU KIR2DL2 /// KIR2DL4 /// KIR2DL5A /// KIR2DL5B /// KIR2DS1 /// KIR2DS2 /// KIR2DS3 /// KIR2DS4 /// KIR3DL3 /// KIR3DL3 /// KIR3DS1 (11738374_at) / Fold change /veh KIR2DL2 /// KIR2DL4 /// KIR2DL5A /// KIR2DL5B /// KIR2DS1 /// KIR2DS2 /// KIR2DS3 /// KIR2DS4 /// KIR3DL3 /// KIR3DL3 /// KIR3DS1 (11738374_at) / RFU C1QL1 (11718748_at) / Fold change /veh C1QL1 (11718748_at) / RFU TMPRSS4 (11747572_a_at) / Fold change /veh TMPRSS4 (11747572_a_at) / RFU HAMP (11756126_x_at) / Fold change /veh HAMP (11756126_x_at) / RFU RNFT2 (11725882_a_at) / Fold change /veh RNFT2 (11725882_a_at) / RFU NR4A2 (11747474_a_at) / Fold change /veh NR4A2 (11747474_a_at) / RFU ABCC12 (11746883_a_at) / Fold change /veh ABCC12 (11746883_a_at) / RFU TMEM136 (11760407_x_at) / Fold change /veh TMEM136 (11760407_x_at) / RFU CLDN22 /// WWC2 (11732394_at) / Fold change /veh CLDN22 /// WWC2 (11732394_at) / RFU HLA-DPB1 (11760878_x_at) / Fold change /veh HLA-DPB1 (11760878_x_at) / RFU SPINT1 (11716480_a_at) / Fold change /veh SPINT1 (11716480_a_at) / RFU GAP43 (11754022_s_at) / Fold change /veh GAP43 (11754022_s_at) / RFU A4GNT (11735810_at) / Fold change /veh A4GNT (11735810_at) / RFU PRB3 (11715151_x_at) / Fold change /veh PRB3 (11715151_x_at) / RFU TUBB4B (11761932_at) / Fold change /veh TUBB4B (11761932_at) / RFU CAPN14 (11732068_a_at) / Fold change /veh CAPN14 (11732068_a_at) / RFU TMCC2 (11721928_a_at) / Fold change /veh TMCC2 (11721928_a_at) / RFU IRGQ (11745062_a_at) / Fold change /veh IRGQ (11745062_a_at) / RFU FAM174B (11720279_a_at) / Fold change /veh FAM174B (11720279_a_at) / RFU TMPRSS4 (11748680_a_at) / Fold change /veh TMPRSS4 (11748680_a_at) / RFU FAM212B (11763350_a_at) / Fold change /veh FAM212B (11763350_a_at) / RFU PLEKHG5 (11743358_a_at) / Fold change /veh PLEKHG5 (11743358_a_at) / RFU ZSCAN30 (11745921_a_at) / Fold change /veh ZSCAN30 (11745921_a_at) / RFU CMKLR1 (11741424_a_at) / Fold change /veh CMKLR1 (11741424_a_at) / RFU LOC101060620 /// MAPK8IP1 (11723275_at) / Fold change /veh LOC101060620 /// MAPK8IP1 (11723275_at) / RFU SPTSSB (11747773_x_at) / Fold change /veh SPTSSB (11747773_x_at) / RFU PRSS12 (11739890_at) / Fold change /veh PRSS12 (11739890_at) / RFU BIN1 (11741810_x_at) / Fold change /veh BIN1 (11741810_x_at) / RFU WNT11 (11732464_a_at) / Fold change /veh WNT11 (11732464_a_at) / RFU C10orf10 (11716521_a_at) / Fold change /veh C10orf10 (11716521_a_at) / RFU C5orf56 (11738089_at) / Fold change /veh C5orf56 (11738089_at) / RFU CYB561 (11721691_x_at) / Fold change /veh CYB561 (11721691_x_at) / RFU ANKRD19P (11752326_a_at) / Fold change /veh ANKRD19P (11752326_a_at) / RFU OR2T12 /// OR2T33 /// OR2T8 (11738714_s_at) / Fold change /veh OR2T12 /// OR2T33 /// OR2T8 (11738714_s_at) / RFU VCAN (11748164_a_at) / Fold change /veh VCAN (11748164_a_at) / RFU JSRP1 (11732532_at) / Fold change /veh JSRP1 (11732532_at) / RFU KRTAP10-11 (11738290_x_at) / Fold change /veh KRTAP10-11 (11738290_x_at) / RFU MYO3A (11730013_a_at) / Fold change /veh MYO3A (11730013_a_at) / RFU EBF3 (11725865_a_at) / Fold change /veh EBF3 (11725865_a_at) / RFU CAMK2N1 (11719241_x_at) / Fold change /veh CAMK2N1 (11719241_x_at) / RFU C5orf56 (11738088_a_at) / Fold change /veh C5orf56 (11738088_a_at) / RFU OLFML3 (11715873_a_at) / Fold change /veh OLFML3 (11715873_a_at) / RFU LOC100653217 /// NTM (11731650_a_at) / Fold change /veh LOC100653217 /// NTM (11731650_a_at) / RFU MAPK11 (11762145_a_at) / Fold change /veh MAPK11 (11762145_a_at) / RFU FIZ1 (11724087_x_at) / Fold change /veh FIZ1 (11724087_x_at) / RFU OASL (11726364_x_at) / Fold change /veh OASL (11726364_x_at) / RFU SOX15 (11748057_x_at) / Fold change /veh SOX15 (11748057_x_at) / RFU CD79A (11719716_a_at) / Fold change /veh CD79A (11719716_a_at) / RFU HIST1H1D (11736915_at) / Fold change /veh HIST1H1D (11736915_at) / RFU CASKIN2 (11723855_a_at) / Fold change /veh CASKIN2 (11723855_a_at) / RFU LOC730098 (11760151_x_at) / Fold change /veh LOC730098 (11760151_x_at) / RFU OR4N2 (11742367_at) / Fold change /veh OR4N2 (11742367_at) / RFU PRRT2 (11749266_a_at) / Fold change /veh PRRT2 (11749266_a_at) / RFU SNX32 (11753110_a_at) / Fold change /veh SNX32 (11753110_a_at) / RFU CDHR5 (11726645_a_at) / Fold change /veh CDHR5 (11726645_a_at) / RFU RCAN1 (11760418_a_at) / Fold change /veh RCAN1 (11760418_a_at) / RFU FAM167A (11723789_a_at) / Fold change /veh FAM167A (11723789_a_at) / RFU FAM26E (11764081_at) / Fold change /veh FAM26E (11764081_at) / RFU ISYNA1 (11749810_s_at) / Fold change /veh ISYNA1 (11749810_s_at) / RFU ACY1 (11761880_at) / Fold change /veh ACY1 (11761880_at) / RFU 11764098_at / Fold change /veh 11764098_at / RFU SAMD14 (11745864_x_at) / Fold change /veh SAMD14 (11745864_x_at) / RFU NPB (11741838_a_at) / Fold change /veh NPB (11741838_a_at) / RFU TMPRSS6 (11731388_a_at) / Fold change /veh TMPRSS6 (11731388_a_at) / RFU KRTAP10-2 (11738614_at) / Fold change /veh KRTAP10-2 (11738614_at) / RFU ARHGAP8 /// PRR5-ARHGAP8 (11727945_x_at) / Fold change /veh ARHGAP8 /// PRR5-ARHGAP8 (11727945_x_at) / RFU KRTAP5-7 /// NADSYN1 (11734609_at) / Fold change /veh KRTAP5-7 /// NADSYN1 (11734609_at) / RFU RASL12 (11751679_a_at) / Fold change /veh RASL12 (11751679_a_at) / RFU CDKN2B (11736163_a_at) / Fold change /veh CDKN2B (11736163_a_at) / RFU PRF1 (11729649_at) / Fold change /veh PRF1 (11729649_at) / RFU, ZNF638 /// ZNF638-IT1 / Fold change vs veh, ZNF638 /// ZNF638-IT1 / RFU, PANK3 / Fold change vs veh, PANK3 / RFU, SH3YL1 / Fold change vs veh, SH3YL1 / RFU, ZEB2 / Fold change vs veh, ZEB2 / RFU, NRIP1 / Fold change vs veh, NRIP1 / RFU, PTTG1IP / Fold change vs veh, PTTG1IP / RFU, CAPN2 / Fold change vs veh, CAPN2 / RFU, MED14 / Fold change vs veh, MED14 / RFU, SNORA58 / Fold change vs veh, SNORA58 / RFU, C1orf63 / Fold change vs veh, C1orf63 / RFU, LRRFIP1 / Fold change vs veh, LRRFIP1 / RFU, NDUFAF7 / Fold change vs veh, NDUFAF7 / RFU, SLC12A2 / Fold change vs veh, SLC12A2 / RFU, IBTK / Fold change vs veh, IBTK / RFU, ESF1 / Fold change vs veh, ESF1 / Fold change vs veh, TMEM50B / RFU, TAOK1 / Fold change vs veh, TAOK1 / RFU, ACBD3 / Fold change vs veh, ACBD3 / RFU, TMA16 / Fold change vs veh, TMA16 / RFU, RWDD3 / Fold change vs veh, RWDD3 / RFU, BCAT1 / Fold change vs veh, BCAT1 / RFU, EDEM3 / Fold change vs veh, EDEM3 / RFU, TMEM33 / Fold change vs veh, TMEM33 / RFU, WDR75 / Fold change vs veh, WDR75 / RFU, AHCTF1 / Fold change vs veh, AHCTF1 / RFU, TFRC / Fold change vs veh, TFRC / RFU, ZDHHC17 / Fold change vs veh, ZDHHC17 / RFU, NOM1 / Fold change vs veh, NOM1 / RFU, ARL8B / Fold change vs veh, ARL8B / RFU, ZBTB11 / Fold change vs veh, ZBTB11 / RFU, TAMM41 / Fold change vs veh, TAMM41 / RFU, KIAA1704 /// LOC100996395 / Fold change vs veh, KIAA1704 /// LOC100996395 / RFU, ING1 / Fold change vs veh, ING1 / RFU, TRMT61B / Fold change vs veh, TRMT61B / RFU, FUBP3 / Fold change vs veh, FUBP3 / RFU, TP53 / Fold change vs veh, TP53 / RFU, TNKS2 / Fold change vs veh, TNKS2 / RFU, ZFP14 / Fold change vs veh, ZFP14 / RFU, ACTR2 / Fold change vs veh, ACTR2 / RFU, PPP3R1 / Fold change vs veh, PPP3R1 / RFU, PIK3R1 / Fold change vs veh, PIK3R1 / RFU, HNRNPA1 / Fold change vs veh, HNRNPA1 / RFU, RNF170 / Fold change vs veh, RNF170 / RFU, ZNF28 / Fold change vs veh, ZNF28 / RFU, RNGTT / Fold change vs veh, RNGTT / RFU, OGT / Fold change vs veh, OGT / RFU, BRD1 / Fold change vs veh, BRD1 / RFU, MARS / Fold change vs veh, MARS / RFU, ZNF655 / Fold change vs veh, ZNF655 / RFU, FAHD1 / Fold change vs veh, FAHD1 / RFU, BDP1 / Fold change vs veh, BDP1 / RFU, LRRCC1 / Fold change vs veh, LRRCC1 / RFU, ARID1A / Fold change vs veh, ARID1A / RFU, ZNF146 / Fold change vs veh, ZNF146 / RFU, ZNF330 / Fold change vs veh, ZNF330 / RFU, GPN3 / Fold change vs veh, GPN3 / RFU, C9orf123 / Fold change vs veh, C9orf123 / RFU, N4BP2L2 / Fold change vs veh, N4BP2L2 / RFU, ARFIP1 / Fold change vs veh, ARFIP1 / RFU, FAM179B / Fold change vs veh, FAM179B / RFU, BCL10 / Fold change vs veh, BCL10 / RFU, UHRF1BP1L / Fold change vs veh, UHRF1BP1L / RFU, BET1 / Fold change vs veh, BET1 / RFU, CNOT2 / Fold change vs veh, CNOT2 / RFU, ZNF268 / Fold change vs veh, ZNF268 / Fold change vs veh, ZNF507 / RFU, DGCR2 / Fold change vs veh, DGCR2 / RFU, WDSUB1 / Fold change vs veh, WDSUB1 / Fold change vs veh, HSP90B1 /// MIR3652 / RFU, ADSS / Fold change vs veh, ADSS / RFU, GK / Fold change vs veh, GK / RFU, ZNF148 / Fold change vs veh, ZNF148 / RFU, TAF9 / Fold change vs veh, TAF9 / RFU, SLC1A5 / Fold change vs veh, SLC1A5 / RFU, SLMO2 / Fold change vs veh, SLMO2 / RFU, ABCC4 / Fold change vs veh, ABCC4 / RFU, LOC101060439 /// RAP1B / Fold change vs veh, LOC101060439 /// RAP1B / RFU, RFX7 / Fold change vs veh, RFX7 / RFU, GTPBP10 / Fold change vs veh, GTPBP10 / RFU, CNEP1R1 / Fold change vs veh, CNEP1R1 / RFU, BIVM-ERCC5 /// ERCC5 / Fold change vs veh, BIVM-ERCC5 /// ERCC5 / RFU, ILF3 / Fold change vs veh, ILF3 / RFU 11762660_at / Fold change /veh 11762660_at / RFU VCAN (11757783_s_at) / Fold change /veh VCAN (11757783_s_at) / RFU DDX43 (11728927_at) / Fold change /veh DDX43 (11728927_at) / RFU KRT8 (11758188_x_at) / Fold change /veh KRT8 (11758188_x_at) / RFU NKD1 (11759106_at) / Fold change /veh NKD1 (11759106_at) / RFU SRD5A1 (11742802_a_at) / Fold change /veh SRD5A1 (11742802_a_at) / RFU TPSAB1 /// TPSB2 (11721975_s_at) / Fold change /veh TPSAB1 /// TPSB2 (11721975_s_at) / RFU GSTM3 (11746129_a_at) / Fold change /veh GSTM3 (11746129_a_at) / RFU IL23R (11737362_x_at) / Fold change /veh IL23R (11737362_x_at) / RFU TMEM51 (11727254_a_at) / Fold change /veh TMEM51 (11727254_a_at) / RFU PIWIL2 (11732686_x_at) / Fold change /veh PIWIL2 (11732686_x_at) / RFU ORM1 (11744905_x_at) / Fold change /veh ORM1 (11744905_x_at) / RFU CCDC152 (11743942_at) / Fold change /veh CCDC152 (11743942_at) / RFU ECM1 (11717891_a_at) / Fold change /veh ECM1 (11717891_a_at) / RFU IL23R (11748794_a_at) / Fold change /veh IL23R (11748794_a_at) / RFU TNFAIP8L3 (11732012_x_at) / Fold change /veh TNFAIP8L3 (11732012_x_at) / RFU MBOAT4 (11741988_at) / Fold change /veh MBOAT4 (11741988_at) / RFU 11764193_at / Fold change /veh 11764193_at / RFU TMEM53 (11763286_at) / Fold change /veh TMEM53 (11763286_at) / RFU MAGEB2 (11727129_at) / Fold change /veh MAGEB2 (11727129_at) / RFU TMEM200A (11744735_a_at) / Fold change /veh TMEM200A (11744735_a_at) / RFU CCDC152 (11751479_a_at) / Fold change /veh CCDC152 (11751479_a_at) / RFU FAM211A (11726209_a_at) / Fold change /veh FAM211A (11726209_a_at) / RFU RGS16 (11746705_a_at) / Fold change /veh RGS16 (11746705_a_at) / RFU VCAN (11755009_s_at) / Fold change /veh VCAN (11755009_s_at) / RFU RHOB (11743442_s_at) / Fold change /veh RHOB (11743442_s_at) / RFU RGS16 (11720943_a_at) / Fold change /veh RGS16 (11720943_a_at) / RFU RGS16 (11720944_at) / Fold change /veh RGS16 (11720944_at) / RFU, VPS4B / Fold change vs veh, VPS4B / RFU, CREB1 / Fold change vs veh, CREB1 / RFU, DNAJC13 / Fold change vs veh, DNAJC13 / RFU, GNAQ / Fold change vs veh, GNAQ / RFU, CDK5R1 / Fold change vs veh, CDK5R1 / RFU, ZRANB3 / Fold change vs veh, ZRANB3 / RFU, CUL4A / Fold change vs veh, CUL4A / RFU, CCNY / Fold change vs veh, CCNY / RFU, UFL1 / Fold change vs veh, UFL1 / RFU, COG3 / Fold change vs veh, COG3 / RFU, DIAPH2 / Fold change vs veh, DIAPH2 / RFU, SKA2 / Fold change vs veh, SKA2 / RFU, AFF3 / Fold change vs veh, AFF3 / RFU, LMF1 / Fold change vs veh, LMF1 / RFU, IPO11 / Fold change vs veh, IPO11 / RFU, DFFB / Fold change vs veh, DFFB / RFU, FOXP1 / Fold change vs veh, FOXP1 / RFU, CARD8 / Fold change vs veh, CARD8 / RFU, STRN3 / Fold change vs veh, STRN3 / RFU, ADK / Fold change vs veh, ADK / RFU, RASSF2 / Fold change vs veh, RASSF2 / RFU, WIPF1 / Fold change vs veh, WIPF1 / RFU, LARP1B / Fold change vs veh, LARP1B / RFU, RASA1 / Fold change vs veh, RASA1 / RFU, RB1 / Fold change vs veh, RB1 / RFU, PPFIA1 / Fold change vs veh, PPFIA1 / RFU, MAT2A / Fold change vs veh, MAT2A / RFU, CCT5 / Fold change vs veh, CCT5 / RFU, WDR92 / Fold change vs veh, WDR92 / RFU, CUX1 / Fold change vs veh, CUX1 / RFU, TTC7A / Fold change vs veh, TTC7A / RFU, TMEM135 / Fold change vs veh, TMEM135 / RFU, DEPTOR / Fold change vs veh, DEPTOR / RFU, CPM / Fold change vs veh, CPM / RFU, DNAJB6 / Fold change vs veh, DNAJB6 / RFU, CACNA2D3 / Fold change vs veh, CACNA2D3 / RFU, DTX4 / Fold change vs veh, DTX4 / RFU, TFCP2 / Fold change vs veh, TFCP2 / RFU, GMCL1 /// GMCL1P1 / Fold change vs veh, GMCL1 /// GMCL1P1 / RFU, AEBP2 / Fold change vs veh, AEBP2 / RFU, SNHG1 /// SNORD22 /// SNORD25 /// SNORD26 /// SNORD27 /// SNORD28 /// SNORD29 /// SNORD31 / Fold change vs veh, SNHG1 /// SNORD22 /// SNORD25 /// SNORD26 /// SNORD27 /// SNORD28 /// SNORD29 /// SNORD31 / Fold change (Aza/veh), C12orf56 (ProbeSet 11735607_a_at) / Fold change (ACY-1035/veh), C12orf56 (ProbeSet 11735607_a_at) / Fold change (Aza/veh), FGFR1OP (ProbeSet 11751329_s_at) / Fold change (ACY-1035/veh), FGFR1OP (ProbeSet 11751329_s_at) / Fold change (Aza/veh), VPS36 (ProbeSet 11739960_a_at) / Fold change (ACY-1035/veh), VPS36 (ProbeSet 11739960_a_at) / RFU SYPL1 (11715823_x_at) / Fold change /veh SYPL1 (11715823_x_at) / RFU IGFBP7 (11715501_s_at) / Fold change /veh IGFBP7 (11715501_s_at) / RFU REEP3 (11722064_at) / Fold change /veh REEP3 (11722064_at) / RFU IGLL1 (11728026_x_at) / Fold change /veh IGLL1 (11728026_x_at): dose or concentration left out as unconfirmed
Details: ProbeSet 11728271_at; LIST B

## Nc1ccc(-c2cccs2)cc1NC(=O)c1ccc2c(c1)cc(C1CC1)n2CCN1CCOCC1 [ACY-1035]
  RFU, ZNF330: 663.85 RFU
